According to patent publication US10570179B2, “Substituted urea depsipeptide analogs as activators of the CLPP endopeptidase” (priority 2016, dated 2020):
In brackets after ≈: the same amount, converted by molar mass. Like-named read-outs stand apart in the source and are kept apart here. Numbered stars: 1 amine (or outer) side, 2 acyl side, 3 side chain; on linkers, the order of the positions; unused ones are H or OH. Bridge positions count the residues as written; N and C are the ends. Square brackets hold non-standard residues; d marks the D form. Peptide text beside a SMILES is read from it. * marks the point of attachment. ξ: configuration not given here. Phe(3,5-Me2) = Cc1cc(C)cc(C[C@H](N)C(=O)O)c1; Phe(3-Me) = Cc1cccc(C[C@H](N)C(=O)O)c1; NH(4-Cl-2-F-phenyl) = Fc1cc(Cl)ccc1N*; Pro(4R-Me) = C[C@H]1CN[C@H](C(=O)O)C1; NH(4-Me-phenyl) = Cc1ccc(N*)cc1; ξNMeThr = CNC(C(=O)O)[C@@H](C)O; aThr = C[C@H](O)[C@H](N)C(=O)O; Pip = O=C(O)[C@@H]1CCCCN1; CO = O=C([*:1])[*:2]

Columns and labels:
[1] = Microsomal metabolic stability; type: in vitro ADME, human
Method: Compounds were initially prepared by dissolving them into DMSO at a final concentration of 10 mM. NADPH regenerating solutions A and B and mouse liver microsomes (CD-1) were obtained from BD Gentest (Woburn, Mass.). Ninety-six well deep well plates were obtained from MidWest Scientific Inc (Valley Park, Mo.).
Sample preparation for microsomal stability was modified from methods of Di, L., et al., Int J Pharm. 2005 Jun. 13; 297(1-2):110-9. A set of incubation times of 0, 15, 30, 60, 120, and 240 minutes were used. Mouse liver microsomal solutions were prepared by adding 58 μL of concentrated human or mouse liver microsomes (20 mg/mL protein concentration) to 1.756 mL of 0.1 M potassium phosphate buffer (pH 7.4) and 5 μL of 0.5 M EDTA to make a 0.6381 mg/mL (protein) microsomal solution. NADPH regenerating agent contained 113 μL of NADPH A, 23 μL of NADPH B, and 315 μL of 0.1 M potassium phosphate buffer (pH 7.4). The diluted test compound solutions (2 μL) were each added directly to a 1.79 mL of liver microsomal solution. This solution was mixed and 90 μL was transferred to 6 time points plates (each in triplicate wells). For the time 0 plate, 225 μL of cold acetonitrile with internal standard ([…] warfarin) was added to each well, followed by addition of NADPH regenerating agent (22.5 μL) and no incubation. For other five time points' plate, NADPH regenerating agent (22.5 μL) was added to each well to initiate the reaction. The plates were incubated at 37° C. for the required time, followed by quenching of the reaction by adding 225 μL of cold acetonitrile with internal standard (4 μg/ml warfarin). All of the plates were sealed and mixed well at 600 rpm for 10 minutes followed by centrifugation at 4000 rpm for 20 minutes. The supernatants (120 μL) were transferred to analytical plates for analysis by LCMS. LCMS conditions were described in the materials and instrumentation section above. The metabolic stability is evaluated via the half-life from least-squares fit of the multiple time points based on first-order kinetics.

Solubility determination = type: physicochemical; conditions: for solubility kinetic at 10 min: 22 °C, aqueous buffer, kinetic from dmso stock
Method: Test compounds were synthesized and supplied by the Department of Chemical Biology and Therapeutics at St. Jude Children's Research Hospital (Memphis, Tenn.). LC-MS chromasolv grade acetonitrile (ACN) was purchased from Fisher Scientific (Loughborough, UK). LC-MS chromasolv grade formic acid was obtained from Sigma-Aldrich (St. Louis, Mo.). Milli-Q water as an ultrapure laboratory grade water was used in aqueous mobile phase.
Chromatographic separation was performed on an Acquity UPLC BEH C18 1.7 μm, 2.1×50 mm column (Waters Corporation, Milford, Mass.) using an Acquity ultra performance liquid chromatography system. The total flow rate was 0.9 mL/min. The sample injection volume was 10 μL. The UPLC column was maintained at 60° C. and the gradient program started at 90% A (0.1% formic acid in MilliQ H2O), changed to 70% A over 0.2 min, to 95% B (0.1% formic acid in ACN) over 1.4 minutes, held for 0.35 minutes, then to 90% A over 0.05 minutes.
Mass data was acquired with an Acquity SQD Mass Spectrometer. The mass spectrometer was operated in positive-ion mode with electrospray ionization. The conditions were as follows: capillary voltage 3.5 kV, cone voltage 30 V, source temperature 150° C., desolvation temperature 350° C., desolvation gas 500 L/hr, cone gas 25 L/hr. Data were acquired using Masslynx v. 4.1 and analyzed using the Quanlynx software suite. A full scan range from m/z=100-1000 in 0.2 s was used to acquire MS data. Both UV and Single ion recording mass spectrometry were used to determine the quantification of the samples.
Stock solutions were prepared by dissolving compounds into DMSO to yield a concentration of 10 mM. Stock solutions were stored at room temperature.
Calibration standards were made by adding stock solutions to DMSO for final concentrations of compounds at concentration of 100, 25, 6.25, 1.563, 0.391 and 0.098 μM.
Solubility test samples were made by adding stock solutions to 200 μL, of DPBS for final concentrations of compounds at 100 μM in a 96-well analytical plate (300 μL, maximum volume in each well). Samples were tested in triplicates. The plate was sealed, shaken at 600 rpm for 10 minutes, and then was centrifuged at 4000 rpm for 20 min at 22° C. 100 μL, of the supernatant was transferred to a new analytical 96-well plate and 10 μL, was injected onto the LCMS system.
Two calibration curves for solubility test samples were analyzed during the quantitation process. The linear regression of test compound peak areas was weighted by 1/x^2. […] Coefficient of determination (R^2) was used to evaluate the linearity of each calibration curve.

[2] = Plasma protein binding, rapid equilibrium dialysis; type: in vitro ADME, human; conditions: 10 μM
Method: This assay determines plasma protein binding of a drug/compound and free drug concentration in plasma using rapid equilibrium dialysis, which allow the aqueous component of plasma containing the free drug/compound through a dialysis membrane (MWCO˜8,000).
Solutions were prepared at 10 mM in DMSO. Dulbecco's phosphate buffered saline (DPBS; pH 7.4) was obtained from Invitrogen (Carlsbad, Calif.). Single-Use RED (rapid equilibrium dialysis) device was obtained from Thermo scientific (Rockford, Ill.). Human plasma was obtained from Innovative Research INC (Novi, Michigan, Ill).
Sample preparation for plasma protein binding was modified from Waters' method. (Waters et al. (2008) J. Pharm. Sci. 97(10): 4586-95). The Teflon base plate with the RED inserts (MWCO 8 K) were allowed to use without any pre-condition the membrane inserts. Human plasma was thawed and centrifuged at 1000 rpm for 2 min to remove any particulates. Each compound was prepared at 10 μM in human plasma. This was done by adding 1 μL, of drug solution (10 mM in DMSO) to 1000 μL, of human plasma (0.1% DMSO). Spiked plasma solutions (300 μL) were placed into the sample chamber (indicated by the red ring) and 500 μL, of DPBS into the adjacent chamber. The plate was sealed and incubated at 37° C. on an orbital shaker (100 rpm) for 4 hours. After incubation, the seal was removed from the RED plate and the volume of the insert confirmed—little to no volume change occurred. Aliquots (50 μL) were removed from each side of the insert and dispensed into a 96-well deep plate. An equal volume of blank plasma or DPBS was added to the required wells to create analytically identical sample matrices (matrix matching). To each sample 200 μL, of ACN containing 4 μg/mL warfarin IS was added. All of the plates were sealed and mixed well at 600 rpm for 10 min and were centrifuged at 4000 rpm for 20 min. The supernatants (120 μL) were transferred to analytical plates for analysis by LCMS. Conditions for Waters ACQUITY-UPLC-MS-UV system were described separately. The test compound concentrations were quantified in both buffer and plasma chambers via peak areas relative to the internal standard. The percentage of the test compound bound to plasma was calculated on following equations: % Free=(Concentration buffer chamber/concentration plasma chamber)×100% and % Bound=100%-% Free.

[3] = microsomal metabolic stability half-life, human liver microsomes
[4] = solubility in DPBS, 100 μM test samples, LCMS, read-out: LCMS
[5] = plasma binding, % Bound, human plasma

For `Cc1ccc(NC(=O)N[C@@H](Cc2cccc(C)c2)C(=O)N[C@H]2COC(=O)[C@@H]3C[C@H](C)CN3C(=O)[C@H](C)NC(=O)[C@@H]3CCCCN3C(=O)[C@@H]3CCCN3C2=O)cc1` (stereo in doubt) [Compound 43, (S)—N-((2S,6S,8AS,14AS,20S,23AS)-2,6-DIMETHYL-5,8,14,19,23-PENTAOXOOCTADECAHYDRO-1H,5H,14H,19H-PYRIDO[2,1-I]DIPYRROLO[2,1-C:2′,1′-L][1]OXA[4,7,10,13]TETRAAZACYCLOHEXADECIN-20-YL)-3-(M-TOLYL)-2-(3-(P-TOLYL)UREIDO)PROPANAMIDE], the “Human” value [1, 3] was 1.36 ± 0.14 h, the solubility kinetic at 10 min (Solubility determination; [4]) was 42.2 ± 0.9 µM (≈ 32.6 µg/mL) and the “μsol (μM)” value (Solubility determination; solubility) was 49.8 ± 2.5 µM. For the same compound, the Human [2, 5] was 72.9 ± 1.4%.

With `Cc1ccc(NC(=O)N[C@@H](Cc2cccc(C)c2)C(=O)N[C@@H]2C(=O)N3CCC[C@H]3C(=O)N3CCCC[C@H]3C(=O)N[C@@H](C)C(=O)N3C[C@H](C)C[C@H]3C(=O)O[C@H]2C)cc1` [Compound 1, (S)-3-(M-TOLYL)-2-(3-(P-TOLYL)UREIDO)-N-((2R,6S,8AS,14AS,20S,21S,23AS)-2,6,21-TRIMETHYL-5,8,14,19,23-PENTAOXOOCTADECAHYDRO-1H,5H,14H,19H-PYRIDO[2,1-I]DIPYRROLO[2,1-C:2′,1′-L][1]OXA[4,7,10,13]TETRAAZACYCLOHEXADECIN-20-YL)PROPANAMIDE] ({NH(4-Me-phenyl)-CO}-[Phe(3-Me)][aThr]P[Pip]A[Pro(4R-Me)]; ester 2-C) the “Human” value [1, 3] was 11.45 h, the solubility kinetic at 10 min (Solubility determination; [4]) was 22.9 µM (≈ 18 µg/mL) and the “μsol (μM)” value (Solubility determination; solubility) was 40.7 µM. The “μsol (μg/mL)” value (Solubility determination; solubility) was 32.0 µg/mL and the Human [2, 5] was 98.5%.

With `Cc1ccc(NC(=O)N[C@@H](Cc2cc(C)cc(C)c2)C(=O)N[C@@H]2C(=O)N3CCC[C@H]3C(=O)N3CCCC[C@H]3C(=O)N[C@@H](C)C(=O)N3C[C@H](C)C[C@H]3C(=O)O[C@H]2C)cc1` [Compound 2, (S)-3-(3,5-DIMETHYLPHENYL)-2-(3-(P-TOLYL)UREIDO)-N-((2R,6S,8AS,14AS,20S,21S,23AS)-2,6,21-TRIMETHYL-5,8,14,19,23-PENTAOXOOCTADECAHYDRO-1H,5H,14H,19H-PYRIDO[2,1-I]DIPYRROLO[2,1-C:2′,1′-L][1]OXA[4,7,10,13]TETRAAZACYCLOHEXADECIN-20-YL)PROPANAMIDE] ({NH(4-Me-phenyl)-CO}-[Phe(3,5-Me2)][aThr]P[Pip]A[Pro(4R-Me)]; ester 2-C) the “Human” value [1, 3] was 0.62 h, the solubility kinetic at 10 min (Solubility determination; [4]) was 6.7 µM (≈ 5.36 µg/mL) and the “μsol (μM)” value (Solubility determination; solubility) was 10.4 µM. For the same compound, the “μsol (μg/mL)” value (Solubility determination; solubility) was 8.3 µg/mL and the Human [2, 5] was 99.3%.

In the case of `Cc1cccc(C[C@H](NC(=O)Nc2ccc(Cl)cc2F)C(=O)N[C@@H]2C(=O)N3CCC[C@H]3C(=O)N3CCCC[C@H]3C(=O)N[C@@H](C)C(=O)N3C[C@H](C)C[C@H]3C(=O)O[C@H]2C)c1` [Compound 3, (S)-2-(3-(4-CHLORO-2-FLUOROPHENYL)UREIDO)-3-(M-TOLYL)-N-((2R,6S,8AS,14AS,20S,21S,23AS)-2,6,21-TRIMETHYL-5,8,14,19,23-PENTAOXOOCTADECAHYDRO-1H,5H,14H,19H-PYRIDO[2,1-I]DIPYRROLO[2,1-C:2′,1′-L][1]OXA[4,7,10,13]TETRAAZACYCLOHEXADECIN-20-YL)PROPANAMIDE] ({NH(4-Cl-2-F-phenyl)-CO}-[Phe(3-Me)][aThr]P[Pip]A[Pro(4R-Me)]; ester 2-C), the “Human” value ([1]; human, pH 7.4) is reported as 4.68 ± 0.78 h, the “μsol (μM)” value (Solubility determination) is reported as 2.2 ± 0.1 µM and the “μsol (μg/mL)” value (Solubility determination) is reported as 1.8 ± 0.1 µg/mL. The solubility kinetic at 10 min (Solubility determination) was 0.5 µM (≈ 0.412 µg/mL) and the Human ([2]; human, 4 h, pH 7.4) was 99.0 ± 0.1%.

For `Cc1cc(C)cc(C[C@H](NC(=O)Nc2ccc(Cl)cc2F)C(=O)N[C@@H]2C(=O)N3CCC[C@H]3C(=O)N3CCCC[C@H]3C(=O)N[C@@H](C)C(=O)N3C[C@H](C)C[C@H]3C(=O)O[C@H]2C)c1` [Compound 4, (S)-2-(3-(4-CHLORO-2-FLUOROPHENYL)UREIDO)-3-(3,5-DIMETHYLPHENYL)-N-((2R,6S,8AS,14AS,20S,21S,23AS)-2,6,21-TRIMETHYL-5,8,14,19,23-PENTAOXOOCTADECAHYDRO-1H,5H,14H,19H-PYRIDO[2,1-I]DIPYRROLO[2,1-C:2′,1′-L][1]OXA[4,7,10,13]TETRAAZACYCLOHEXADECIN-20-YL)PROPANAMIDE] ({NH(4-Cl-2-F-phenyl)-CO}-[Phe(3,5-Me2)][aThr]P[Pip]A[Pro(4R-Me)]; ester 2-C), the “Human” value ([1]; human, pH 7.4) was 0.94 ± 0.09 h, the “μsol (μg/mL)” value (Solubility determination) was under 0.1 µg/mL and the Human ([2]; human, 4 h, pH 7.4) was 99.8 ± 0.2%.

In the case of `Cc1cccc(C[C@H](NC(=O)Nc2ccc(Cl)cc2F)C(=O)N[C@@H]2C(=O)N3CCC[C@H]3C(=O)N(C)C([C@@H](C)O)C(=O)N[C@@H](C)C(=O)N3C[C@H](C)C[C@H]3C(=O)O[C@H]2C)c1` (stereo partly drawn) [Compound 5] ({NH(4-Cl-2-F-phenyl)-CO}-[Phe(3-Me)][aThr]P[ξNMeThr]A[Pro(4R-Me)]; ester 2-C), the “Human” value ([1]; human, pH 7.4) is reported as 0.31 ± 0.03 h, the “μsol (μM)” value (Solubility determination) is reported as 22.5 ± 1.9 µM and the solubility kinetic at 10 min (Solubility determination) is reported as 17.4 ± 0.4 µM (≈ 14.4 µg/mL). The Human ([2]; human, 4 h, pH 7.4) was 98.0 ± 1.0%.
